Reference: patent US8334315B2, “Substituted aromatic carboxamide and urea derivatives as vanilloid receptor ligands” (Gruenenthal GmbH, priority 2009, dated 2012)

Legend:
hVR1 [1] = target: T1, hVR1 (Homo sapiens, UniProt Q8NER1); assay: Functional test on human VR1, 45° C. stimulus; assay type: cell-based, human being; conditions: for IC50: read-out: IC50 (human being) [nM], 45° C.; for inhibition at 2.5 µM: read-out: IC50 (human being), 45° C.: inhibition (as a percentage)
T1 construct: expressed in transfected cells; host or cells: CHO K1 cells (ECACC), stably transfected
T1 sequence (Q8NER1 whole entry): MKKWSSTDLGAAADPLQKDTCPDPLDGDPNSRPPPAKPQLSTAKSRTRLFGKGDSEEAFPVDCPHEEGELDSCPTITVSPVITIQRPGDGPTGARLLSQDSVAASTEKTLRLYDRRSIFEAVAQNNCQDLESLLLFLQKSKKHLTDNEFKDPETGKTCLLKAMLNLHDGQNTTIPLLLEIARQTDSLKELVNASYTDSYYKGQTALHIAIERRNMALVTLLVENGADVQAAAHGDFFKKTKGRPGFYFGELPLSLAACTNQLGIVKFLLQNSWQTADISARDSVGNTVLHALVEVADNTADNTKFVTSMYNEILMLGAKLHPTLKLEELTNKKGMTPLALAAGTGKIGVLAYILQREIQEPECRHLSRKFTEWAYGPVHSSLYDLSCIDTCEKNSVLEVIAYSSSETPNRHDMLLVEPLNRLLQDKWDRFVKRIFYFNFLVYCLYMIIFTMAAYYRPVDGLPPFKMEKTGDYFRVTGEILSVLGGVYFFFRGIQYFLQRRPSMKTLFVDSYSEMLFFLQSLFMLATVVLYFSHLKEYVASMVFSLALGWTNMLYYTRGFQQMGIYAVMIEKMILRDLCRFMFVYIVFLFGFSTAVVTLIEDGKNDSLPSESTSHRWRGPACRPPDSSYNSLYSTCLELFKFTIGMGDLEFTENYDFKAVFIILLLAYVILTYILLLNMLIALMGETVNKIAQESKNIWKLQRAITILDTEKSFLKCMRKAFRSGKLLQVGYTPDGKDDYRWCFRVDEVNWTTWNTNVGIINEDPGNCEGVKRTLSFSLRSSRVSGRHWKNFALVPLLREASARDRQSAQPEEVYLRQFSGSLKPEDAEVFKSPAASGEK

hVR1 [2] = target: T1, hVR1; assay: Functional test on VR1, FLIPR Ca2+ influx in transfected CHO K1 cells, capsaicin; assay type: cell-based, human being; set-up: key to Ki (human being) [nM] Cap: agonist / partial agonist / no effect: AG=agonist; pAG=partial agonist; NE=no effect; conditions: for Ki: capsaicin (Cap), includes values given in brackets after pAG, read-out: Ki (human being) [nM] Cap
From the text: In the process, the Ca^2+ influx is quantified in the FLIPR assay with the aid of a Ca^2+-sensitive dye (type Fluo-4, Molecular Probes Europe BV, Leiden, the Netherlands) in a fluorescent imaging plate reader (FLIPR, Molecular Devices, Sunnyvale, USA), as described hereinafter.
II. Functional Tests Carried Out on the Vanilloid Receptor (VR1)
The agonistic or antagonistic effect of the substances to be tested on the vanilloid receptor 1 (VR1) can also be determined using the following assay. In this assay, the influx of Ca^2+ through the channel is quantified with the aid of a Ca^2+-sensitive dye (type Fluo-4, Molecular Probes Europe BV, Leiden, the Netherlands) in a fluorescent imaging plate reader (FLIPR, Molecular Devices, Sunnyvale, USA).
Chinese hamster ovary cells (CHO K1 cells, European Collection of Cell Cultures (ECACC) United Kingdom) are stably transfected with the VR1 gene. For functional testing, these cells are plated out on poly-D-lysine-coated black 96-well plates having a clear base (BD Biosciences, Heidelberg, Germany) at a density of 25,000 cells/well. The cells are incubated overnight at 37° C. and 5% CO2 in a culture medium (Ham's F12 nutrient mixture, 10% by volume of FCS (foetal calf serum), 18 μg/ml of L-proline). The next day the cells are incubated with Fluo-4 (Fluo-4 2 μM, 0.01% by volume of Pluronic F127, Molecular Probes in HBSS (Hank's buffered saline solution), Gibco Invitrogen GmbH, Karlsruhe, Germany) for 30 minutes at 37° C. Subsequently, the plates are washed three times with HBSS buffer and after further incubation for 15 minutes at RT used for Ca^2+ measurement in a FLIPR assay. The Ca^2+-dependent fluorescence is measured before and after the addition of the substances to be tested (λex wavelength=488 nm, λem=540 nm). Quantification is carried out by measuring the highest fluorescence intensity (FC, fluorescence counts) over time.
The FLIPR protocol consists of 2 substance additions. First the compounds to be tested (10 μM) are pipetted onto the cells and the Ca^2+ influx is compared with the control (capsaicin 10 μM) (% activation based on the Ca^2+ signal after the addition of 10 μM of capsaicin). After 5 minutes' incubation, 100 nM of capsaicin are applied and the Ca^2+ influx is also determined.
Desensitising agonists and antagonists led to suppression of the Ca^2+ influx. The % inhibition is calculated compared to the maximum achievable inhibition with 10 μM of capsaicin.
Starting from the percentage displacement caused by different concentrations of the compounds to be tested of general formula I, IC50 inhibitory concentrations which cause a 50-per cent displacement of capsaicin were calculated. Ki values for the test substances were obtained by conversion by means of the Cheng-Prusoff equation (Cheng, Prusoff; Biochem. Pharmacol. 22, 3099-3108, 1973).
The affinity of the compounds according to the invention for the vanilloid receptor 1 (VR1/TRPV1 receptor) was determined as described hereinbefore (pharmacological methods I and II respectively).

| SMILES | IC50 (hVR1 [1]) | Ki (hVR1 [2]) | inhibition at 2.5 µM (hVR1 [1]) | Ki (human being) [nM] Cap: agonist / partial agonist / no effect (hVR1 [2]) |
| --- | --- | --- | --- | --- |
| Cc1cc2c(NC(=O)NCc3cc(C(F)(F)F)nn3-c3cccc(Cl)c3)cccc2[nH]1 [Example 192, 1-((1-(3-chlorophenyl)-3-(trifluoromethyl)-1H-pyrazol-5-yl)methyl)-3-(2-methyl-1H-indol-4-yl)urea] | – | 10.8 nM | – | – |
| CC(C(=O)NCc1cc(C(F)(F)F)nn1-c1cccc(Cl)c1)c1cccc2c(F)cccc12 (stereo not shown) [Example 197, N-((1-(3-chlorophenyl)-3-(trifluoromethyl)-1H-pyrazol-5-yl)methyl)-2-(5-fluoronaphthalen-1-yl)propanamide] | – | 5.8 nM | – | – |
| CC(C(=O)NCc1cc(C(F)(F)F)nn1-c1cccc(Cl)c1)c1cccc2c1CC(O)C2 (stereo not shown) [Example 208, N-((1-(3-chlorophenyl)-3-(trifluoromethyl)-1H-pyrazol-5-yl)methyl)-2-(2-hydroxy-2,3-dihydro-1H-inden-4-yl)propanamide] | 298 nM | 62.6 nM | – | – |
| COc1ccc(-n2nc(C(F)(F)F)cc2CNC(=O)Nc2ccc3c(c2)CCC3)cc1 [Example 178, 1-(2,3-dihydro-1H-inden-5-yl)-3-((1-(4-methoxyphenyl)-3-(trifluoromethyl)-1H-pyrazol-5-yl)methyl)urea] | – | 38.4 nM | – | – |
| COc1ccc2cccc(C(C)C(=O)NCc3cc(C(F)(F)F)nn3-c3cccc(Cl)c3)c2c1 (stereo not shown) [Example 212, N-((1-(3-chlorophenyl)-3-(trifluoromethyl)-1H-pyrazol-5-yl)methyl)-2-(7-methoxynaphthalen-1-yl)propanamide] | 626 nM | 8.3 nM | – | – |
| Cc1ccc(-n2nc(C(F)(F)F)cc2CNC(=O)Nc2ccc3c(c2)CCC3)cc1C [Example 181, 1-(2,3-dihydro-1H-inden-5-yl)-3-((1-(3,4-dimethylphenyl)-3-(trifluoromethyl)-1H-pyrazol-5-yl)methyl)urea] | – | 35.9 nM | – | – |
| CC(C)(C)c1cc(CNC(=O)Nc2cc(F)cc3[nH]ncc23)n(-c2ccccn2)n1 [Example 216, 1-((3-tert-butyl-1-(pyridin-2-yl)-1H-pyrazol-5-yl)methyl)-3-(6-fluoro-1H-indazol-4-yl)urea] | 2120 nM | 54 nM | – | – |
| CC(C(=O)NCc1cc(C(F)(F)F)nn1C1CCCCC1)c1ccc2c(c1)OCCO2 (stereo not shown) [Example 184, N-((1-cyclohexyl-3-(trifluoromethyl)-1H-pyrazol-5-yl)methyl)-2-(2,3-dihydrobenzo[b][1,4]dioxin-6-yl)propanamide] | – | 66.2 nM | – | – |
| CC(C(=O)NCc1cc(C(F)(F)F)nn1-c1cccc(Cl)c1)c1cccc2c1ccn2C (stereo not shown) [Example 26, N-((1-(3-chlorophenyl)-3-(trifluoromethyl)-1H-pyrazol-5-yl)methyl)-2-(1-methyl-1H-indol-4-yl)propanamide] | – | 21.5 nM | – | – |
| O=C(NCc1cc(C(F)(F)F)nn1-c1cccc(Cl)c1)Nc1cc(F)cc2[nH]ncc12 [Example 194, 1-((1-(3-chlorophenyl)-3-(trifluoromethyl)-1H-pyrazol-5-yl)methyl)-3-(6-fluoro-1H-indazol-4-yl)urea] | – | 8.4 nM | – | – |
| CC(C(=O)NCc1cc(C(F)(F)F)nn1-c1cccc(Cl)c1)c1ccc(F)c2[nH]ncc12 (stereo not shown) [Example 195, N-((1-(3-chlorophenyl)-3-(trifluoromethyl)-1H-pyrazol-5-yl)methyl)-2-(7-fluoro-1H-indazol-4-yl)propanamide] | – | 6.8 nM | – | – |
| CC(C(=O)NCc1cc(C(F)(F)F)nn1-c1cccc(Cl)c1)c1cccc2cc(F)ccc12 (stereo not shown) [Example 211, N-((1-(3-chlorophenyl)-3-(trifluoromethyl)-1H-pyrazol-5-yl)methyl)-2-(6-fluornaphthalen-1-yl)propanamide] | 154 nM | – | – | – |
| CC(C(=O)NCc1cc(C(F)(F)F)nn1-c1cccc(Cl)c1)c1ccc2c(c1)CCC(C)(C)O2 (stereo not shown) [Example 189, N-((1-(3-chlorophenyl)-3-(trifluoromethyl)-1H-pyrazol-5-yl)methyl)-2-(2,2-dimethylchroman-6-yl)propanamide] | – | 41.2 nM | – | – |
| CC(C)(C)c1cc(CNC(=O)Nc2cccc3cccnc23)n(-c2cccc(Cl)c2)n1 [Example 107, 1-((3-tert-butyl-1-(3-chlorophenyl)-1H-pyrazol-5-yl)methyl)-3-(quinolin-8-yl)urea] | 375 nM | 22.4 nM | – | – |
| CC(C(=O)NCc1cc(C(C)(C)C)nn1-c1cccc(Cl)c1)c1cccc2[nH]ccc12 (stereo not shown) [Example 25, N-((3-tert-butyl-1-(3-chlorophenyl)-1H-pyrazol-5-yl)methyl)-2-(1H-indol-4-yl)propanamide] | – | 5.5 nM | – | – |
| CC(C)(C)c1cc(CNC(=O)Nc2ccc3c(c2)CCC3)n(-c2cc(Cl)cc(Cl)c2)n1 [Example 182, 1-((3-tert-butyl-1-(3,5-dichlorophenyl)-1H-pyrazol-5-yl)methyl)-3-(2,3-dihydro-1H-inden-5-yl)urea] | – | 32.8 nM | – | – |

The remaining compounds from weak to strong by Ki (hVR1 [2]), led by results:

| IC50 (hVR1 [1]) | Ki (hVR1 [2]) | inhibition at 2.5 µM (hVR1 [1]) | Ki (human being) [nM] Cap: agonist / partial agonist / no effect (hVR1 [2]) | SMILES |
| --- | --- | --- | --- | --- |
| – | 5.2 nM | – | – | Cc1cc2c(C(C)C(=O)NCc3cc(C(F)(F)F)nn3-c3cccc(Cl)c3)cccc2c(C)n1 (stereo not shown) [Example 67, N-((1-(3-chlorophenyl)-3-(trifluoromethyl)-1H-pyrazol-5-yl)methyl)-2-(1,3-dimethylisoquinolin-5-yl)propanamide] |
| 396 nM | 4.9 nM | – | – | O=C(NCc1cc(C(F)(F)F)nn1-c1cccc(Cl)c1)Nc1ccc2scnc2c1 [Example 97, 1-(benzo[d]thiazol-5-yl)-3-((1-(3-chlorophenyl)-3-(trifluoromethyl)-1H-pyrazol-5-yl)methyl)urea] |
| 686 nM | 4 nM | – | – | CC(C(=O)NCc1cc(C(F)(F)F)nn1-c1cccc(Cl)c1)c1cccc2c1CC=C2 (stereo not shown) [Example 24, N-((1-(3-chlorophenyl)-3-(trifluoromethyl)-1H-pyrazol-5-yl)methyl)-2-(1H-inden-7-yl)propanamide] |
| – | 0.8 nM | – | – | O=C(NCc1cc(C(F)(F)F)nn1-c1cccc(Cl)c1)Nc1c(Cl)ccc2[nH]ncc12 [Example 205, 1-(5-chloro-1H-indazol-4-yl)-3-((1-(3-chlorophenyl)-3-(trifluoromethyl)-1H-pyrazol-5-yl)methyl)urea] |
| – | 0.6 nM | – | pAG | CC(C(=O)NCc1cc(C(F)(F)F)nn1-c1cccc(Cl)c1)c1ccc2c(cnn2S(C)(=O)=O)c1 (stereo not shown) [Example 191, N-((1-(3-chlorophenyl)-3-(trifluoromethyl)-1H-pyrazol-5-yl)methyl)-2-(1-(methylsulfonyl)-1H-indazol-5-yl)propanamide] |
| – | 0.5 nM | 46% | – | CC(C)(C)c1cc(CNC(=O)Nc2cccc3ccc(O)cc23)n(-c2cccc(Cl)c2)n1 [Example 101, 1-((3-tert-butyl-1-(3-chlorophenyl)-1H-pyrazol-5-yl)methyl)-3-(7-hydroxynaphthalen-1-yl)urea] |
| – | 0.5 nM | – | – | CC(C)(C)c1cc(CNC(=O)Nc2cccc3ccncc23)n(-c2cccc(Cl)c2)n1 [Example 108, 1-((3-tert-butyl-1-(3-chlorophenyl)-1H-pyrazol-5-yl)methyl)-3-(isoquinolin-8-yl)urea] |
| 110 nM | 0.4 nM | – | – | O=C(NCc1cc(C(F)(F)F)nn1-c1cccc(Cl)c1)Nc1cccc2cnccc12 [Example 110, 1-((1-(3-chlorophenyl)-3-(trifluoromethyl)-1H-pyrazol-5-yl)methyl)-3-(isoquinolin-5-yl)urea] |
| – | 0.2 nM | 48% | – | O=C(NCc1cc(C(F)(F)F)nn1-c1cccc(Cl)c1)Nc1cccc2ccc(O)cc12 [Example 102, 1-((1-(3-chlorophenyl)-3-(trifluoromethyl)-1H-pyrazol-5-yl)methyl)-3-(7-hydroxynaphthalen-1-yl)urea] |
| 264 nM | 0.07 nM | – | – | CC(C(=O)NCc1cc(C(F)(F)F)nn1-c1cccc(Cl)c1)c1cccc2cnc(Cl)cc12 (stereo not shown) [Example 213, 2-(3-chloroisoquinolin-5-yl)-N-((1-(3-chlorophenyl)-3-(trifluoromethyl)-1H-pyrazol-5-yl)methyl)propanamide] |
